Structures can show the parent of a compound that is named as a salt.
Compound `CCCn1c(-c2cc(F)ccc2F)nc2c(N)nc(C#CC(C)(C)O)nc21.Cl` has a melting point of 194 to 196 °C. Work on `COC1CCCCC1(O)C#Cc1nc(N)c2nc(-c3cccc(F)c3)n(C)c2n1` (stereo not shown) [Example 121, 1-{2-[6-Amino-8-(3-fluorophenyl)-9-methyl-9H-2-purinyl]-1-ethynyl}-2-methoxy-1-cyclohexanol] yielded a melting point of 195 to 197 °C. Compound `Cl.Cn1c(-c2cc(F)ccc2F)nc2c(N)nc(C#CC3(O)CCC3)nc21` has a melting point of 149 to 152 °C. In the case of `Cn1c(-c2ccccc2F)nc2c(N)nc(C#CC(C)(C)O)nc21` [Example 156, 4-[6-Amino-8-(2-fluorophenyl)-9-methyl-9H-2-purinyl]-2-methyl-3-butyn-2-ol], the melting point is reported as 198 to 199 °C. Work on `COC1CCCCC1(O)C#Cc1nc(N)c2nc(-c3cccc(F)c3)n(C)c2n1` (stereo not shown) [Example 120, 1-{2-[6-Amino-8-(3-fluorophenyl)-9-methyl-9H-2-purinyl}-1-ethynyl}-2-methoxy-1-cyclohexanol] yielded a melting point of 281 to 283 °C. Compound `CCCn1c(-c2cc(F)cc(F)c2)nc2c(N)nc(C#CC(O)(CC)CC)nc21.Cl` has a melting point of 183 to 184 °C. For `CCCn1c(-c2cccc(F)c2F)nc2c(N)nc(C#CC(C)(C)O)nc21.Cl`, the melting point was 230 to 233 °C. For `CCn1c(-c2cc(F)ccc2F)nc2c(N)nc(C#CC(C)(C)O)nc21.Cl`, the melting point was 215 to 218 °C. Work on `CCCn1c(-c2cc(F)ccc2F)nc2c(N)nc(C#CC(O)(CC)CC)nc21.Cl` yielded a melting point of 164 to 165 °C. For `CC(C)(O)C#Cc1nc(N)c2nc(-c3cc(F)ccc3F)n(C3CC3)c2n1.Cl`, the melting point was 196 to 198 °C. `Cl.Cn1c(-c2cccc(F)c2)nc2c(N)nc(C#CC(C)(O)C(C)(C)C)nc21` (stereo not shown) gave a melting point of 193 to 194 °C. In the case of `Cl.Cn1c(-c2cccc(F)c2)nc2c(N)nc(C#CC3(O)CCC(c4ccccc4)CC3)nc21` (stereo not shown), the melting point is reported as 247 to 249 °C. Work on `CCn1c(-c2cccc(F)c2)nc2c(N)nc(C#CC(O)(CC)CC)nc21.Cl` yielded a melting point of 150 to 153 °C. For `Cn1c(-c2cc(F)cc(F)c2F)nc2c(N)nc(C#CC3(O)CCCC3)nc21` [Example 125, 1-{2-[6-Amino-9-methyl-8-(2,3,5-trifluorophenyl)-9H-2-purinyl]-1-ethynyl}-1-cyclopentanol], the melting point was 214 to 217 °C. In the case of `CCn1c(-c2cc(F)ccc2F)nc2c(N)nc(C#CC3(O)CCC3)nc21.Cl`, the melting point is reported as 141 to 143 °C. `CCCCC#Cc1nc(N)c2nc(-c3ccco3)n(C)c2n1.Cl` showed a melting point of 178 to 181 °C. With `CCCn1c(-c2cccc(F)c2F)nc2c(N)nc(C#CC3(O)CCC3)nc21.Cl` the melting point was 124 to 127 °C. With `CC(C)C(C)(O)C#Cc1nc(N)c2nc(-c3cccc(F)c3)n(C)c2n1.Cl` (stereo not shown) the melting point was 191 to 192 °C. Compound `CCn1c(-c2cccc(F)c2F)nc2c(N)nc(C#CC(O)(CC)CC)nc21.Cl` has a melting point of 222 to 224 °C. Compound `CCn1c(-c2cccc(F)c2F)nc2c(N)nc(C#CC(C)(C)O)nc21.Cl` has a melting point of 213 to 215 °C. In the case of `CCn1c(-c2cc(F)ccc2F)nc2c(N)nc(C#CC3(O)CCCC3)nc21.Cl`, the melting point is reported as 191 to 194 °C. For `CCCn1c(-c2cc(F)cc(F)c2)nc2c(N)nc(C#CC(C)(C)O)nc21.Cl`, the melting point was 148 to 150 °C. In the case of `CCn1c(-c2cccc(F)c2)nc2c(N)nc(C#CC(C)(C)O)nc21.Cl`, the melting point is reported as 193 to 196 °C. `CCC(O)(C#Cc1nc(N)c2nc(-c3cc(F)cc(F)c3)n(C3CC3)c2n1)CC.Cl` gave a melting point of 225 °C. Work on `CC(C)(O)C#Cc1nc(N)c2nc(-c3cccc(F)c3)n(C3CC3)c2n1.Cl` yielded a melting point of 143 to 145 °C. Work on `Cn1c(-c2cccc(F)c2)nc2c(N)nc(C#CC3(O)C=CCC3)nc21` (stereo not shown) [Example 122, 1-{2-[6-Amino-8-(3-fluorophenyl)-9-methyl-9H-2-purinyl]-1-ethynyl}-2-cyclopenten-1-ol] yielded a melting point of 191 to 193 °C. `CCCn1c(-c2cc(F)ccc2F)nc2c(N)nc(C#CC3(O)CCCC3)nc21.Cl` showed a melting point of 232 to 234 °C. With `CCCn1c(-c2cccc(F)c2F)nc2c(N)nc(C#CC(O)(CC)CC)nc21.Cl` the melting point was 187 to 188 °C. `Cl.Cn1c(-c2cc(F)cc(F)c2)nc2c(N)nc(C#CC3(O)CCCC3)nc21` gave a melting point of 255 to 258 °C. With `CCC(O)(C#Cc1nc(N)c2nc(-c3cccc(F)c3)n(C3CC3)c2n1)CC.Cl` the melting point was 145 to 148 °C. `Cl.Cn1c(-c2ccco2)nc2c(N)nc(C#CCCO)nc21` gave a melting point of 161 to 164 °C. Compound `Cl.Nc1nc(C#CC2(O)CCC2)nc2c1nc(-c1cc(F)cc(F)c1)n2C1CC1` has a melting point of 228 °C. Work on `Cl.Nc1nc(C#CC2(O)CCCCC2)nc2c1nc(-c1cccc(F)c1)n2C1CCCC1` yielded a melting point of 196 to 200 °C. `CC(O)C#Cc1nc(N)c2nc(-c3ccco3)n(C)c2n1` (stereo not shown) [Example 23, 4-[6-Amino-8-(2-furyl)-9-methyl-9H-2-purinyl]-3-butyn-2-ol] gave a melting point of 155 to 158 °C. `Cn1c(-c2cc(F)cc(F)c2F)nc2c(N)nc(C#CC3(O)CCC3)nc21` [Example 126, 1-{2-[6-Amino-9-methyl-8-(2,3,5-trifluorophenyl)-9H-2-purinyl]-1-ethynyl}-1-cyclobutanol] showed a melting point of 231 to 234 °C. In the case of `CCCn1c(-c2cc(F)cc(F)c2)nc2c(N)nc(C#CC3(O)CCCC3)nc21.Cl`, the melting point is reported as 210 to 211 °C. `CCn1c(-c2cc(F)cc(F)c2)nc2c(N)nc(C#CC3(O)CCCC3)nc21.Cl` showed a melting point of 217 to 218 °C. With `CCC(O)(C#Cc1nc(N)c2nc(-c3cc(F)ccc3F)n(C)c2n1)CC.Cl` the melting point was 147 to 148 °C. `Cn1c(-c2ccccc2F)nc2c(N)nc(C#CC3(O)CCC3)nc21` [Example 146, 1-{2-[6-Amino-8-(2-fluorophenyl)-9-methyl-9H-2-purinyl]-1-ethynyl}-1-cyclobutanol] gave a melting point of 136 to 138 °C. Work on `CCn1c(-c2cc(F)cc(F)c2)nc2c(N)nc(C#CC(O)(CC)CC)nc21.Cl` yielded a melting point of 204 to 205 °C. `CCCn1c(-c2cc(F)ccc2F)nc2c(N)nc(C#CC3(O)CCC3)nc21.Cl` showed a melting point of 225 to 226 °C. In the case of `Cl.Nc1nc(C#CC2(O)CCCC2)nc2c1nc(-c1cc(F)cc(F)c1)n2C1CC1`, the melting point is reported as 265 to 266 °C. `Cl.Nc1nc(C#CC2(O)CCC2)nc2c1nc(-c1cccc(F)c1)n2C1CC1` showed a melting point of 167 to 170 °C. Compound `Cn1c(-c2cccc(F)c2F)nc2c(N)nc(C#CC3(O)CCC3)nc21` [Example 127, 1-{2-[6-Amino-8-(2,3-difluorophenyl)-9-methyl-9H-2-purinyl]-1-ethynyl}-1-cyclobutanol] has a melting point of 225 to 229 °C. `Cl.Nc1nc(C#CC2(O)CCC2)nc2c1nc(-c1cc(F)ccc1F)n2C1CC1` showed a melting point of 161 to 164 °C. In the case of `CCC(O)(C#Cc1nc(N)c2nc(-c3ccccc3F)n(C)c2n1)CC` [Example 149], the melting point is reported as 199 to 201 °C. Work on `Cl.Cn1c(-c2ccco2)nc2c(N)nc(C#CC3CCCCC3)nc21` yielded a melting point of 155 to 160 °C. Work on `Cl.Nc1nc(C#CC2(O)CCCC2)nc2c1nc(-c1cccc(F)c1)n2C1CC1` yielded a melting point of 220 to 223 °C. Compound `CCCn1c(-c2cccc(F)c2)nc2c(N)nc(C#CC(O)(CC)CC)nc21.Cl` has a melting point of 144 to 147 °C. Work on `Cl.Cn1c(-c2cccc(F)c2)nc2c(N)nc(/C=C/C3(O)CCCCC3)nc21` yielded a melting point of 222 to 225 °C. For `CC(C)(O)C#Cc1nc(N)c2nc(-c3cc(F)cc(F)c3)n(C3CC3)c2n1.Cl`, the melting point was 245 °C. `CN(C)c1ccc(-n2c(-c3cccc(F)c3)nc3c(N)nc(C#CC4(O)CCCCC4)nc32)cc1` (as salt: hydrochloride) [Example 3, 1-{2-[6-Amino-9-[4-(dimetylamino)phenyl]-8-(3-fluorophenyl)-9H-2-purinyl]-1-ethynyl}-1-cyclohexanol Dihydrochloride] gave a melting point of 255 to 260 °C. With `CCn1c(-c2cc(F)ccc2F)nc2c(N)nc(C#CC(O)(CC)CC)nc21.Cl` the melting point was 163 to 166 °C. With `CC(C)C(O)C#Cc1nc(N)c2nc(-c3cccc(F)c3)n(C)c2n1.Cl` (stereo not shown) the melting point was 170 to 173 °C. `Cl.Cn1c(-c2cc(F)ccc2F)nc2c(N)nc(C#CC(C)(C)O)nc21` gave a melting point of 177 to 178 °C. Work on `Cn1c(-c2ccccc2F)nc2c(N)nc(C#CC3(O)CCCC3)nc21` [Example 147, 1-{2-[6-Amino-8-(2-fluorophenyl)-9-methyl-9H-2-purinyl]-1-ethynyl}-1-cyclopentanol] yielded a melting point of 166 to 168 °C. For `CCn1c(-c2cccc(F)c2)nc2c(N)nc(/C=C/C3(O)CCC3)nc21.Cl`, the melting point was 178 to 180 °C. For `Cl.Cn1c(-c2ccco2)nc2c(N)nc(C#CC3(O)CCCC3)nc21`, the melting point was 168 to 172 °C. Compound `CCn1c(-c2cc(F)cc(F)c2)nc2c(N)nc(C#CC3(O)CCC3)nc21.Cl` has a melting point of 234 to 235 °C. For `Cl.Cn1c(-c2cc(F)cc(F)c2)nc2c(N)nc(C#CC(C)(C)O)nc21`, the melting point was 237 to 238 °C. `Cl.Nc1nc(C#CC2(O)CCCC2)nc2c1nc(-c1cc(F)ccc1F)n2C1CC1` gave a melting point of 230 to 232 °C. Compound `CCn1c(-c2cc(F)cc(F)c2)nc2c(N)nc(C#CC(C)(C)O)nc21.Cl` has a melting point of 233 to 234 °C. `CCC(O)(C#Cc1nc(N)c2nc(-c3ccc(C)o3)n(C)c2n1)CC.Cl` gave a melting point of 229 to 230 °C. For `CCC(O)C#Cc1nc(N)c2nc(-c3cccc(F)c3)n(C)c2n1.Cl` (stereo not shown), the melting point was 171 to 175 °C. For `Cl.Cn1c(-c2ccco2)nc2c(N)nc(C#CCCC3CCCCC3)nc21`, the melting point was 165 to 169 °C. In the case of `CCC(O)(C#Cc1nc(N)c2nc(-c3cc(F)ccc3F)n(C3CC3)c2n1)CC.Cl`, the melting point is reported as 215 to 216 °C. In the case of `CCCn1c(-c2cccc(F)c2F)nc2c(N)nc(C#CC3(O)CCCC3)nc21.Cl`, the melting point is reported as 184 to 188 °C. With `Cl.Cn1c(-c2cccc(F)c2)nc2c(N)nc(/C=C/C(C)(C)O)nc21` the melting point was > 290 °C. Compound `CCC(O)(C#Cc1nc(N)c2nc(-c3cc(F)cc(F)c3)n(C)c2n1)CC.Cl` has a melting point of 207 to 210 °C. Compound `CCn1c(-c2cccc(F)c2F)nc2c(N)nc(C#CC3(O)CCCC3)nc21.Cl` has a melting point of 138 to 140 °C.
